Assay type in all cases: cell-based
One assay concerns MDA-MB-231. Nature of the assay: Cytotoxicity, triple negative breast cancer cell line MDA-MB-231. The following applies: Homo sapiens.
The test system of the next assay is 4T1. Nature of the assay: Cytotoxicity, triple negative breast cancer cell line 4T1. The following applies: Mus musculus.
For another assay, the system named is CFPAC-1. Nature of the assay: Cytotoxicity, pancreatic cancer cell line CFPAC-1. The following applies: Homo sapiens.
The next assay relates to BxPC3. Briefly: Cytotoxicity, pancreatic cancer cell line BxPC3. The following applies: Homo sapiens, BXPC-3.
The next assay has as its system SKOV3. Nature of the assay: Cytotoxicity, ovarian cancer cell line SKOV3. The following applies: Homo sapiens, SK-OV-3.

SMILES strings stand for the structures.

The term IC50 denotes the concentration that inhibits the measured activity by half. Low readings indicate inhibition by little substance, high ones a need for much substance. Regarding `CC(=O)O[C@@]12CO[C@@H]1C[C@H](O)[C@@]1(C)C(=O)[C@H](O)C3=C(C)[C@@H](OC(=O)[C@H](O)[C@@H](NC(=O)OC(C)(C)C)c4ccccc4)C[C@@](O)([C@@H](OC(=O)c4ccccc4)[C@H]21)C3(C)C` [DTX, docetaxel], the IC50 with MDA-MB-231 worked out at 0.0187 µM; in the assay with 4T1, 0.0291 µM; in the assay on CFPAC-1 it was 0.0388 µM; in the assay with BxPC3 it was 0.0229 µM; in the assay on SKOV3, 0.0101 µM.

Values taken from US20240374529A1, “PHARMACEUTICAL COMPOSITION COMPRISING POLYSACCHARIDE” (HUNG, MIEN-CHIE, priority 2021, published 2024).
